# From patent EP3697380B1, “ORAL CARE PREPARATIONS COMPRISING CHLORHEXIDINE AND ARGININE OR THEIR SALTS” (priority 2019, dated 2020)
# Assay: Stability of chlorhexidine in simplified formulations by HPLC-UV after storage at 60°C
# Format: physicochemical
# Details: result in words; formulations with arginine versus without, 60°C for 42 days
# Method: The following simplified formulations were used for these studies: […]
# The stability of the formulations was measured by HPLC-UV after storage at 60°C for 42 days. The formulations were stored in PET bottles with PP caps.
# Compositions 1-4 include arginine as a stabilising agent. […] In particular, compositions 1-4 and compositions 5-7 differ only in the presence or absence of arginine.
smiles,measurement,value
"N=C(N)NCCCC(N)C(=O)O (stereo not shown) [arginine, 2-amino-5-guanidinopentanoic acid]",stability of the chlorhexidine,improved the stability
